{"source": "a melting point compilation (Tetko et al.)", "data": [{"units": {"melting point": "°C"}, "values": [{"smiles": "CC(=O)Nc1ccc(C(N)=S)cc1", "melting point": "239 to 241"}, {"smiles": "Cc1nn(Cc2ccc(Cl)cc2)c(C)c1CO", "melting point": "132 to 134"}, {"smiles": "CN(C1CCCCC1)S(=O)(=O)c1cccc(C(=O)O)c1", "melting point": "145 to 147"}, {"smiles": "NC1=NN(c2c(Cl)cc(Cl)cc2Cl)C(=O)C1", "melting point": "218 to 220"}, {"smiles": "CC(=O)N1CCN(CC(N)=S)CC1", "melting point": "199 to 201"}, {"smiles": "COC(=O)CNS(=O)(=O)c1ccc(Cl)nc1", "melting point": "124 to 126"}, {"smiles": "Cc1ccc(O)c(C=O)n1", "melting point": "64 to 66"}, {"smiles": "CN(C)c1ccc([N+](=O)[O-])cc1C(=O)O", "melting point": "149 to 151"}, {"smiles": "CCS(=O)(=O)c1ccc2oc(N)nc2c1", "melting point": "209 to 211"}, {"smiles": "Nc1nc(Cl)ncc1[N+](=O)[O-]", "melting point": "209 to 211"}, {"smiles": "Nc1cccc(NC(=O)N2CCCCCC2)c1", "melting point": "121 to 123"}, {"smiles": "Cc1nc(N)cc(Cl)n1", "melting point": "191 to 193"}, {"smiles": "OCc1cn(-c2ccc(Cl)cc2)nn1", "melting point": "142 to 144"}, {"smiles": "O=C(O)C(Sc1ccccc1Cl)c1ccccc1", "note": "(stereo not given)", "melting point": "116 to 118"}, {"smiles": "COc1cc(C=O)ccc1OCC(=O)N1CCCC1", "melting point": "117 to 119"}, {"smiles": "CC(C)(C)c1ccc(N)c(C(=O)O)c1", "melting point": "144 to 146"}, {"smiles": "COc1ccc(NS(=O)(=O)c2cc(N)ccc2OC)cc1", "melting point": "133 to 135"}, {"smiles": "Nn1c(S)nnc1-c1ccccc1F", "melting point": "184 to 186"}, {"smiles": "O=C(O)C1CCN(CC(F)(F)F)CC1", "melting point": "62 to 64"}, {"smiles": "COC(=O)NC(Cc1ccccc1)C(=O)O", "note": "(stereo not given)", "melting point": "75 to 77"}, {"smiles": "O=C(O)c1ccc(N2CCNC2=O)cc1", "melting point": "313 to 315"}, {"smiles": "OCc1nc(-c2ccco2)no1", "melting point": "123 to 125"}, {"smiles": "Sc1nc(-c2cccs2)no1", "melting point": "108 to 110"}, {"smiles": "O=C(CCc1ccccc1Cl)c1ccccc1", "melting point": "46 to 48"}, {"smiles": "O=C(O)c1ccc(OCc2ccncc2)cc1", "melting point": "278 to 280"}, {"smiles": "O=c1[nH]c(CCl)nc2scc(-c3cccs3)c12", "melting point": "219 to 221"}, {"smiles": "CC1CCc2c(sc(N)c2C#N)C1", "note": "(stereo not given)", "melting point": "145 to 147"}, {"smiles": "CS(=O)(=O)c1ccc(OCCC(=O)O)cc1", "melting point": "108 to 110"}, {"smiles": "CNc1ccccc1C(=O)NCCc1ccc(OC)cc1", "melting point": "96 to 98"}, {"smiles": "COc1ccc(Br)cc1C(=O)C(=O)O", "melting point": "137 to 139"}, {"smiles": "O=c1[nH]cnc2c1CCCN2", "melting point": "258 to 260"}, {"smiles": "CC(C)(C)NS(=O)(=O)c1ccc(Cl)c(C(=O)O)c1", "melting point": "179 to 181"}, {"smiles": "O=C(O)c1cccc2[nH]cnc12", "melting point": "326 to 330"}, {"smiles": "N#Cc1cccn2ccnc12", "melting point": "169 to 171"}, {"smiles": "Cc1cnc(=S)[nH]c1", "melting point": "239 to 241"}, {"smiles": "O=Cc1cnc2cnccn12", "melting point": "178 to 180"}, {"smiles": "Nc1ccc(-c2cn3ccsc3n2)cc1", "melting point": "199 to 201"}, {"smiles": "ClCc1nc(-c2cccs2)n[nH]1", "melting point": "159 to 161"}, {"smiles": "Cn1cc(CCC(=O)O)c2ccccc21", "melting point": "123 to 125"}, {"smiles": "CCc1n[nH]c(N)c1Br", "melting point": "117 to 119"}, {"smiles": "NC(=S)Nc1cccc(Oc2ccccc2)c1", "melting point": "119 to 121"}, {"smiles": "CC(O)(Cc1ccccc1)C(=O)O", "note": "(stereo not given)", "melting point": "90 to 92"}, {"smiles": "CC(=O)CC(=O)c1ccc(Cl)cc1", "melting point": "67 to 71"}, {"smiles": "CC(c1ccc(Cl)cc1Cl)S(N)(=O)=O", "note": "(stereo not given)", "melting point": "123 to 125"}, {"smiles": "Cc1ccc(S(=O)(=O)Nc2ccc(N)cc2)cc1", "melting point": "183 to 185"}, {"smiles": "CC(C)N(O)C(=O)C(=O)O", "melting point": "99 to 101"}, {"smiles": "N#Cc1cccc(COc2ccc(N)cc2F)c1", "melting point": "69 to 71"}, {"smiles": "Cc1cc(C(=O)O)c2cnn(C(C)C)c2n1", "melting point": "172 to 174"}, {"smiles": "O=C(CCl)N(C1CCCCC1)C1CCS(=O)(=O)C1", "note": "(stereo not given)", "melting point": "162 to 164"}, {"smiles": "O=S(=O)(NC1=NCCN1)c1cccs1", "melting point": "173 to 175"}, {"smiles": "CC(C)Cn1c(N)c(C=O)c(=O)n(C)c1=O", "melting point": "192 to 194"}, {"smiles": "COc1cc(C(=O)O)cc(Cl)c1OC(C)C", "melting point": "156 to 158"}, {"smiles": "O=c1cc(-c2cccc(Cl)c2)[nH]c(=O)[nH]1", "melting point": "248 to 250"}, {"smiles": "CCOc1ccc(S(N)(=O)=O)cc1", "melting point": "152 to 154"}, {"smiles": "O=c1[nH]c(Cl)nc2c1cnn2-c1ccccc1", "melting point": "276 to 278"}, {"smiles": "Cc1c(NS(=O)(=O)c2cc(C(=O)O)cc(Cl)c2Cl)c(=O)n(-c2ccccc2)n1C", "melting point": "155 to 157"}, {"smiles": "ClCc1coc(-c2cccs2)n1", "melting point": "45 to 57"}, {"smiles": "COCc1cc([N+](=O)[O-])ccc1Cl", "melting point": "43 to 45"}, {"smiles": "Cc1ccc2c(CC(=O)O)coc2c1", "melting point": "140 to 142"}, {"smiles": "NS(=O)(=O)CCCC(=O)O", "melting point": "108 to 111"}]}]}
